Results: ChEMBL document CHEMBL1122010 (J Med Chem, 1982)

How the values were obtained:
Dihydrofolate reductase = target: T1, Dihydrofolate reductase (Mus musculus, UniProt P00375); assay: Inhibition of Dihydrofolate reductase in mouse L1210 cells; type: cell-based
T1 sequence (P00375 whole entry): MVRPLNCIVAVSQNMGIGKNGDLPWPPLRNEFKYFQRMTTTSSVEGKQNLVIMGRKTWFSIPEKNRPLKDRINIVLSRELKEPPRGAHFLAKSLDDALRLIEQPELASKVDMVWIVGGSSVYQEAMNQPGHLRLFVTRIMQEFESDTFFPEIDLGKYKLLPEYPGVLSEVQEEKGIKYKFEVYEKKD

HEp-2 = assay: Effective dose against H.Ep.-2 cells; type: functional; conditions: Homo sapiens, read-out: ED50 (the source's name)
L1210 [1] = assay: Ki value was measured as influx in L1210 cell membrane transport.; type: functional, cell-based, Mus musculus
L1210 [2] = assay: k value was measured as efflux in L1210 cell membrane transport.; type: functional, Mus musculus
L1210 [3] = assay: Percent increase in life span was measured against L1210 murine leukemia cells at the dose of 180 mg/kg; type: functional; conditions: Mus musculus
[4] = The compound was compared with MTX with respect to cytotoxicity toward H.Ep.-2 cells.; type: functional
L1210 [5] = assay: Km value was measured as influx in L1210 cell membrane transport.; type: functional, cell-based; conditions: Mus musculus
L1210 [6] = assay: Percent increase in life span was measured against L1210 murine leukemia cells at the dose of 5 mg/kg; type: functional; conditions: Mus musculus
L1210 [7] = assay: Percent increase in life span was measured against L1210 murine leukemia cells at the dose of 2.5 mg/kg; type: functional; conditions: Mus musculus
L1210 [8] = assay: Percent increase in life span was measured against L1210 murine leukemia cells at the dose of 200 mg/kg; type: functional; conditions: Mus musculus
L1210 [9] = assay: Percent increase in life span was measured against L1210 murine leukemia cells at the dose of 50 mg/kg; type: functional; conditions: Mus musculus
L1210 [10] = assay: Percent increase in life span was measured against L1210 murine leukemia cells at the dose of 25 mg/kg; type: functional; conditions: Mus musculus
L1210 [11] = assay: Percent increase in life span was measured against L1210 murine leukemia cells at the dose of 1.3 mg/kg; type: functional; conditions: Mus musculus
L1210 [12] = assay: Percent increase in life span was measured against L1210 murine leukemia cells at the dose of 100 mg/kg; type: functional; conditions: Mus musculus

Row | SMILES | Ki (Dihydrofolate reductase) | EC50 (HEp-2) | Ki (L1210 [1]) | k (L1210 [2]) | ILS at 180 mg/kg (L1210 [3]) | MTX ratio [4] | Km (L1210 [5]) | ILS at 5 mg/kg (L1210 [6]) | ILS at 2.5 mg/kg (L1210 [7]) | ILS at 200 mg/kg (L1210 [8]) | ILS at 50 mg/kg (L1210 [9]) | ILS at 25 mg/kg (L1210 [10]) | ILS at 1.3 mg/kg (L1210 [11]) | ILS at 100 mg/kg (L1210 [12])
1 | CN(Cc1cnc2nc(N)nc(N)c2n1)c1ccc(C(=O)NC(CCC(N)=O)C(=O)O)cc1 (stereo not drawn) | 0.0027 nM | 28 nM | 8400 nM | 0.15 min⁻¹ | 58% | 12 | 9.4 µM |  |  |  |  |  |  | 
2 | CN(Cc1cnc2nc(N)nc(N)c2n1)c1ccc(C(=O)NC(CCC(=O)NCC(=O)O)C(=O)O)cc1 (stereo not drawn) | 0.0029 nM | 5.9 nM |  | 2.1 min⁻¹ |  | 2.5 | 3.9 µM | 74% |  |  |  |  |  | 
3 | CN(Cc1cnc2nc(N)nc(N)c2n1)c1ccc(C(=O)NC(CCC(=O)N[C@@H](CCC(=O)O)C(=O)O)C(=O)O)cc1 (stereo partly drawn) | 0.0037 nM | 5.2 nM |  | 0.22 min⁻¹ |  | 2.2 | 49.3 µM |  | 65% |  |  |  |  | 
4 | CCCCCNC(=O)CCC(NC(=O)c1ccc(N(C)Cc2cnc3nc(N)nc(N)c3n2)cc1)C(=O)O (stereo not drawn) | 0.0035 nM | 55 nM | 16800 nM | 0.26 min⁻¹ |  | 23 | 16.9 µM |  |  | 55% |  |  |  | 
5 | CN(Cc1cnc2nc(N)nc(N)c2n1)c1ccc(C(=O)NC(CCC(=O)O)C(=O)NCC(=O)O)cc1 (stereo not drawn) | 208 nM | 590 nM | 66600 nM |  |  | 370 |  |  |  |  | 41% |  |  | 
6 | CN(Cc1cnc2nc(N)nc(N)c2n1)c1ccc(C(=O)NC(CCC(=O)O)C(=O)N[C@@H](CC(=O)O)C(=O)O)cc1 (stereo partly drawn) | 208 nM | 520 nM | 146000 nM |  |  | 217 |  |  |  |  |  | 47% |  | 
7 | CN(Cc1cnc2nc(N)nc(N)c2n1)c1ccc(C(=O)NC(CCC(=O)O)C(=O)N[C@@H](CCC(=O)O)C(=O)O)cc1 (stereo partly drawn) | 170 nM | 180 nM | 61000 nM |  |  | 75 |  |  |  |  |  | 67% |  | 
8 | CN(C)C(=O)CCC(NC(=O)c1ccc(N(C)Cc2cnc3nc(N)nc(N)c3n2)cc1)C(=O)O (stereo not drawn) | 0.0039 nM | 59 nM |  | 0.26 min⁻¹ |  | 25 | 48.4 µM |  |  |  | 44% |  |  | 
9 | CN(Cc1cnc2nc(N)nc(N)c2n1)c1ccc(C(=O)NC(CCC(=O)O)C(N)=O)cc1 (stereo not drawn) | 460 nM | 610 nM |  |  |  | 250 |  |  |  |  |  | 34% |  | 
10 | CN(Cc1cnc2nc(N)nc(N)c2n1)c1ccc(C(=O)N[C@@H](CCC(=O)O)C(=O)O)cc1 [METHOTREXATE] |  |  | 3500 nM | 0.23 min⁻¹ |  |  | 3.3 µM |  |  |  |  |  | 48% | 
11 | CN(Cc1cnc2nc(N)nc(N)c2n1)c1ccc(C(=O)NC(CCC(=O)N[C@@H](CC(=O)O)C(=O)O)C(=O)O)cc1 (stereo partly drawn) | 0.0028 nM | 330 nM |  |  |  | 140 | > 300 µM | 65% |  |  |  |  |  | 
12 | CNC(=O)CCC(NC(=O)c1ccc(N(C)Cc2cnc3nc(N)nc(N)c3n2)cc1)C(=O)O (stereo not drawn) | 0.0027 nM | 27 nM |  | 0.21 min⁻¹ |  | 11 | 27.6 µM |  |  |  |  |  |  | 58%
13 | CN(Cc1cnc2nc(N)nc(N)c2n1)c1ccc(C(=O)NC(CCC(=O)NCc2ccccc2)C(=O)O)cc1 (stereo not drawn) | 0.0036 nM | 210 nM | 3800 nM | 0.19 min⁻¹ |  | 88 | 3.6 µM |  |  |  |  |  |  | 33%
